In patent publication US10913710B2, “Benzene disulfonamide for the treatment of cancer” (priority 2017, dated 2021):
pKd: −log10 of the molar value.

Molecular target: PDEδ (Homo sapiens (Human), UniProt O43924)
Assay: Fluorescence polarization competition binding assay: displacement titration of labeled Atorvastatin probe for KD
Details: fluorescence polarization assay; activity classes; read-out: KD
Experimental: Example D.2: Displacement Titrations of Labeled Atorvastatin-Probe for the Determination of KD Values
Displacement Titrations of Labeled Atorvastatin-Probe for the Determination of KD Values:
The purification was followed by size exclusion gel filtration on a Superdex 75 S26/60 column using buffer A (25 mM Tris-HCl, pH 7.5, 150 mM NaCl and 3 mM DTE).

pKd	Compound
6.00 to 7.00	COc1cc(CN(C2CCCCC2)S(=O)(=O)c2ccc(S(=O)(=O)N(C)C3CCCCC3)cc2)cc(OC)c1OC [Compound 64, N1,N4-dicyclohexyl-N1-methyl-N4-(3,4,5-trimethoxybenzyl)benzene-1,4-disulfonamide]
7.52 to 9.00	O=S(=O)(NC1CCCCC1)c1ccc(S(=O)(=O)N(Cc2ccccc2)CC2CCCO2)cc1 (stereo not drawn) [Compound 65, N1-benzyl-N4-cyclohexyl-N1-((tetrahydrofuran-2-yl)methyl)benzene-1,4-disulfonamide]
< 6.00	O=S(=O)(NCc1ccccc1)c1ccc(S(=O)(=O)N(Cc2ccco2)Cc2ccccc2F)cc1 [Compound 66, N1-benzyl-N4-(2-fluorobenzyl)-N4-(furan-2-ylmethyl)benzene-1,4-disulfonamide]
6.00 to 7.00	COc1cccc(CN(CC2CCCO2)S(=O)(=O)c2ccc(S(=O)(=O)N3CCCC3)cc2)c1 (stereo not drawn) [Compound 67, N-(3-methoxybenzyl)-4-(pyrrolidin-1-ylsulfonyl)-N-((tetrahydrofuran-2-yl)methyl)benzenesulfonamide]
7.52 to 9.00	CCN(CC)S(=O)(=O)c1ccc(S(=O)(=O)N(Cc2ccc(OC)c(OC)c2)C2CCCCC2C)cc1 (stereo not drawn) [Compound 68, N1-(3,4-dimethoxybenzyl)-N4,N4-diethyl-N1-(2-methylcyclohexyl)benzene-1,4-disulfonamide]
6.00 to 7.00	CCOc1ccc(CN(C2CC2)S(=O)(=O)c2ccc(S(=O)(=O)N(C)C)cc2)cc1 [Compound 69, N1-cyclopropyl-N1-(4-ethoxybenzyl)-N4,N4-dimethylbenzene-1,4-disulfonamide]
6.00 to 7.00	COc1ccc(CN(C2CCCCC2C)S(=O)(=O)c2ccc(S(=O)(=O)NCc3ccccc3)cc2)cc1OC (stereo not drawn) [Compound 70, N1-benzyl-N4-(3,4-dimethoxybenzyl)-N4-(2-methylcyclohexyl)benzene-1,4-disulfonamide]
< 6.00	CN(C)S(=O)(=O)c1ccc(S(=O)(=O)N(Cc2ccc(Cl)cc2)Cc2ccco2)cc1 [Compound 71, N1-(4-chlorobenzyl)-N1-(furan-2-ylmethyl)-N4,N4-dimethylbenzene-1,4-disulfonamide]
6.00 to 7.00	CC1CCCN(S(=O)(=O)c2ccc(S(=O)(=O)N(Cc3ccc4c(c3)OCO4)Cc3ccccc3F)cc2)C1 (stereo not drawn) [Compound 72, N-(benzo[d][1,3]dioxol-5-ylmethyl)-N-(2-fluorobenzyl)-4-((3-methylpiperidin-1-yl)sulfonyl)benzenesulfonamide]
6.00 to 7.00	COc1ccc(CN(Cc2ccc(C)cc2)S(=O)(=O)c2ccc(S(=O)(=O)N(C)Cc3ccccc3)cc2)cc1 [Compound 73, N1-benzyl-N4-(4-methoxybenzyl)-N1-methyl-N4-(4-methylbenzyl)benzene-1,4-disulfonamide]
< 6.00	CN(Cc1ccccc1)S(=O)(=O)c1ccc(S(=O)(=O)N(Cc2ccc(Cl)cc2)Cc2ccco2)cc1 [Compound 74, N1-benzyl-N4-(4-chlorobenzyl)-N4-(furan-2-ylmethyl)-N1-methylbenzene-1,4-disulfonamide]
< 6.00	COc1ccc(CN(Cc2ccc3c(c2)OCO3)S(=O)(=O)c2ccc(S(=O)(=O)NC3CCCCC3)cc2)cc1OC [Compound 75, N1-(benzo[d][1,3]dioxol-5-ylmethyl)-N4-cyclohexyl-N1-(3,4-dimethoxybenzyl)benzene-1,4-disulfonamide]
6.00 to 7.00	CCOc1ccccc1CN(Cc1ccco1)S(=O)(=O)c1ccc(S(=O)(=O)NC2CCCCC2)cc1 [Compound 76, N1-cyclohexyl-N4-(2-ethoxybenzyl)-N4-(furan-2-ylmethyl)benzene-1,4-disulfonamide]
6.00 to 7.00	O=S(=O)(NCC1CCCO1)c1ccc(S(=O)(=O)N(Cc2ccccc2)Cc2ccccc2F)cc1 (stereo not drawn) [Compound 77, N1-benzyl-N1-(2-fluorobenzyl)-N4-((tetrahydrofuran-2-yl)methyl)benzene-1,4-disulfonamide]
6.00 to 7.00	O=S(=O)(c1ccc(S(=O)(=O)N(Cc2ccc(F)cc2)Cc2ccc(F)cc2)cc1)N1CCCCC1 [Compound 78, N,N-bis(4-fluorobenzyl)-4-(piperidin-1-ylsulfonyl)benzenesulfonamide]
< 6.00	CCOc1ccc(CN(CC2CCCO2)S(=O)(=O)c2ccc(S(=O)(=O)N3CCCCC3)cc2)cc1 (stereo not drawn) [Compound 79, N-(4-ethoxybenzyl)-4-(piperidin-1-ylsulfonyl)-N-((tetrahydrofuran-2-yl)methyl)benzenesulfonamide]
7.00 to 7.52	O=S(=O)(c1ccc(S(=O)(=O)N(Cc2ccc(F)cc2)CC2CCCO2)cc1)N1CCCCC1 (stereo not drawn) [Compound 80, N-(4-fluorobenzyl)-4-(piperidin-1-ylsulfonyl)-N-((tetrahydrofuran-2-yl)methyl)benzenesulfonamide]
7.00 to 7.52	COc1ccc(CN(Cc2ccccc2Cl)S(=O)(=O)c2ccc(S(=O)(=O)N3CCCCC3)cc2)cc1 [Compound 81, N-(2-chlorobenzyl)-N-(4-methoxybenzyl)-4-(piperidin-1-ylsulfonyl)benzenesulfonamide]

pKd	Compound
6.00 to 7.00	O=S(=O)(c1ccc(S(=O)(=O)N(Cc2ccc(Cl)cc2)CC2CCCO2)cc1)N1CCCCC1 (stereo not drawn) [Compound 82, N-(4-chlorobenzyl)-4-(piperidin-1-ylsulfonyl)-N-((tetrahydrofuran-2-yl)methyl)benzenesulfonamide]
7.00 to 7.52	CN(C1CCCCC1)S(=O)(=O)c1ccc(S(=O)(=O)N(Cc2ccc(F)cc2)C2CC2)cc1 [Compound 83, N1-cyclohexyl-N4-cyclopropyl-N4-(4-fluorobenzyl)-N1-methylbenzene-1,4-disulfonamide]
7.52 to 9.00	COc1cccc(CN(Cc2ccco2)S(=O)(=O)c2ccc(S(=O)(=O)NCC3CCCO3)cc2)c1 (stereo not drawn) [Compound 84, N1-(furan-2-ylmethyl)-N1-(3-methoxybenzyl)-N4-((tetrahydrofuran-2-yl)methyl)benzene-1,4-disulfonamide]
6.00 to 7.00	CCOc1ccc(CN(Cc2ccc(OC)cc2)S(=O)(=O)c2ccc(S(=O)(=O)N3CCCCC3)cc2)cc1 [Compound 85, N-(4-ethoxybenzyl)-N-(4-methoxybenzyl)-4-(piperidin-1-ylsulfonyl)benzenesulfonamide]
< 6.00	O=S(=O)(c1ccc(S(=O)(=O)N(Cc2ccccc2)Cc2ccc(F)cc2)cc1)N1CCCC1 [Compound 86, N-benzyl-N-(4-fluorobenzyl)-4-(pyrrolidin-1-ylsulfonyl)benzenesulfonamide]
< 6.00	CCN(CC)S(=O)(=O)c1ccc(S(=O)(=O)N(Cc2ccc(F)cc2)Cc2cccc(OC)c2OC)cc1 [Compound 87, N1-(2,3-dimethoxybenzyl)-N4,N4-diethyl-N1-(4-fluorobenzyl)benzene-1,4-disulfonamide]
6.00 to 7.00	O=S(=O)(NCC1CCCO1)c1ccc(S(=O)(=O)N(Cc2ccc(F)cc2)C2CCCCC2)cc1 (stereo not drawn) [Compound 88, N1-cyclohexyl-N1-(4-fluorobenzyl)-N4-((tetrahydrofuran-2-yl)methyl)benzene-1,4-disulfonamide]
7.52 to 9.00	CCOc1ccccc1CN(Cc1ccco1)S(=O)(=O)c1ccc(S(=O)(=O)N(CC)C2CCCCC2)cc1 [Compound 89, N1-cyclohexyl-N4-(2-ethoxybenzyl)-N1-ethyl-N4-(furan-2-ylmethyl)benzene-1,4-disulfonamide]
6.00 to 7.00	O=S(=O)(NCc1ccccc1)c1ccc(S(=O)(=O)N(Cc2ccc(Cl)cc2)Cc2ccco2)cc1 [Compound 90, N1-benzyl-N4-(4-chlorobenzyl)-N4-(furan-2-ylmethyl)benzene-1,4-disulfonamide]
7.00 to 7.52	CN(Cc1ccccc1)S(=O)(=O)c1ccc(S(=O)(=O)N(Cc2ccc(F)cc2)C2CCCC2)cc1 [Compound 91, N1-benzyl-N4-cyclopentyl-N4-(4-fluorobenzyl)-N1-methylbenzene-1,4-disulfonamide]
7.52 to 9.00	O=S(=O)(NC1CCCC1)c1ccc(S(=O)(=O)N(Cc2ccccc2)Cc2ccccn2)cc1 [Compound 92, N1-benzyl-N4-cyclopentyl-N1-(pyridin-2-ylmethyl)benzene-1,4-disulfonamide]
6.00 to 7.00	O=S(=O)(NC1CCCC1)c1ccc(S(=O)(=O)N(Cc2ccc(F)cc2)Cc2ccc(F)cc2)cc1 [Compound 93, N1-cyclopentyl-N4,N4-bis(4-fluorobenzyl)benzene-1,4-disulfonamide]
< 6.00	COc1ccc(CN(Cc2ccc3c(c2)OCO3)S(=O)(=O)c2ccc(S(=O)(=O)N3CCCC(C)C3)cc2)cc1OC (stereo not drawn) [Compound 94, N-(benzo[d][1,3]dioxol-5-ylmethyl)-N-(3,4-dimethoxybenzyl)-4-((3-methylpiperidin-1-yl)sulfonyl)benzenesulfonamide]
< 6.00	COc1ccc(CN(Cc2ccc(OC)c(OC)c2)S(=O)(=O)c2ccc(S(=O)(=O)N3CCCCC3)cc2)cc1 [Compound 95, N-(3,4-dimethoxybenzyl)-N-(4-methoxybenzyl)-4-(piperidin-1-ylsulfonyl)benzenesulfonamide]
< 6.00	CN(Cc1ccccc1)S(=O)(=O)c1ccc(S(=O)(=O)N(Cc2ccccc2)Cc2ccccc2F)cc1 [Compound 96, N1,N4-dibenzyl-N1-(2-fluorobenzyl)-N4-methylbenzene-1,4-disulfonamide]
7.52 to 9.00	O=S(=O)(NC1CCCC1)c1ccc(S(=O)(=O)N(Cc2ccccc2)Cc2ccccc2Cl)cc1 [Compound 98, N1-benzyl-N1-(2-chlorobenzyl)-N4-cyclopentylbenzene-1,4-disulfonamide]
6.00 to 7.00	O=S(=O)(NCC1CCCO1)c1ccc(S(=O)(=O)N(Cc2ccc(Cl)cc2)Cc2ccco2)cc1 (stereo not drawn) [Compound 99, N1-(4-chlorobenzyl)-N1-(furan-2-ylmethyl)-N4-((tetrahydrofuran-2-yl)methyl)benzene-1,4-disulfonamide]
7.00 to 7.52	O=S(=O)(NCc1ccccc1)c1ccc(S(=O)(=O)N(Cc2ccc(Cl)cc2)C2CCCC2)cc1 [Compound 100, N1-benzyl-N4-(4-chlorobenzyl)-N4-cyclopentylbenzene-1,4-disulfonamide]
